Experimental data taken from US4487776A, “Azolyl-phenoxy-tetrahydrofuran-2-ylidene-methanes, a process for their preparation, and antimicrobial agents which contain these substances” (Bayer Aktiengesellschaft, priority 1982, dated 1984).
In brackets after ≈: the same amount, converted by molar mass.

How the values were obtained:
Trichophyton mentagr. = assay: Antimycotic in vitro activity, series dilution test (MIC); format: cell-based, Trichophyton mentagrophytes; conditions: 5×10^4 germs/ml, Sabouraud's milieu d'épreuve, 20° C., 96 hours, read-out: MIC values in γ/ml of nutrient medium, Trichophyton mentagr.
Method: (§1) Antimycotic in vitro activity Description of the experiment: The in vitro tests were carried out in a series dilution test with germ inocula of an average of 5×10^4 germs/ml of substrate. The nutrient medium was (a) for dermatophytes and moulds: Sabouraud's milieu d'/e/ preuve and The incubation temperature was 20° C. and the duration of incubation was 24 to 96 hours, in the case of yeasts, and 96 hours in the case of dermatophytes and moulds.

Microsporum canis = assay: as above; format: cell-based; conditions: 5×10^4 germs/ml, Sabouraud's milieu d'épreuve, 20° C., 96 hours, read-out: MIC values in γ/ml of nutrient medium, Microsporum canis
Method: as §1

Candida albicans = assay: as above; format: cell-based; conditions: 5×10^4 germs/ml, meat extract/glucose broth, 20° C., 24 to 96 hours, read-out: MIC values in γ/ml of nutrient medium, Candida albicans
Method: as §1, with “(b)” for “(a)”, “yeasts: meat extract/glucose broth.” for “dermatophytes and moulds: Sabouraud's milieu d'/e/ preuve and”

Torulopsis glabrata = assay: as above; format: cell-based; conditions: Nakaseomyces glabratus, 5×10^4 germs/ml, meat extract/glucose broth, 20° C., 24 to 96 hours, read-out: MIC values in γ/ml of nutrient medium, Torulopsis glabrata
Method: as §1, with “(b)” for “(a)”, “yeasts: meat extract/glucose broth.” for “dermatophytes and moulds: Sabouraud's milieu d'/e/ preuve and”

Aspergillus fumig. = assay: as above; format: cell-based, Aspergillus fumigatus; conditions: 5×10^4 germs/ml, Sabouraud's milieu d'épreuve, 20° C., 96 hours, read-out: MIC values in γ/ml of nutrient medium, Aspergillus fumig.
Method: as §1

[1] = test system: dermatophytes and moulds, yeasts; assay: Antimycotic in vitro activity, overall comparison with known compounds; format: cell-based; conditions: in vitro series dilution test
Method: Antimycotic in vitro activity
Description of the experiment:
The in vitro tests were carried out in a series dilution test with germ inocula of an average of 5×10^4 germs/ml of substrate. The nutrient medium was
(a) for dermatophytes and moulds:
Sabouraud's milieu d'/e/ preuve and
meat extract/glucose broth.
The incubation temperature was 20° C. and the duration of incubation was 24 to 96 hours, in the case of yeasts, and 96 hours in the case of dermatophytes and moulds.

| MIC (Trichophyton mentagr.) [mg/L] | MIC (Microsporum canis) [mg/L] | MIC (Candida albicans) [mg/L] | MIC (Torulopsis glabrata) [mg/L] | MIC (Aspergillus fumig.) [mg/L] | Structure (SMILES) | antimycotic action compared with compounds (A), (B), (C) and (D) [1] |
| --- | --- | --- | --- | --- | --- | --- |
| < 1 | < 1 | < 1 | < 1 | < 1 | CC1(C)CCOC1=C(Oc1ccc(Cl)cc1Cl)n1ccnc1 [Example 3] | better antimycotic action |
| < 1 | < 1 | < 1 | < 1 | < 1 | CC1(C)CCOC1=C(Oc1ccc(-c2ccccc2)cc1)n1ccnc1 [Example 7] | better antimycotic action |
| < 1 | 16 (≈ 52.3 µM) | 4 (≈ 13.1 µM) | 16 (≈ 52.3 µM) | > 64 | CC1(C)CCOC1=C(Oc1ccc(Cl)cc1)n1cncn1 [Example 11] | better antimycotic action |

The remaining lines, values behind:

| Structure (SMILES) | MIC (Trichophyton mentagr.) [mg/L] | MIC (Microsporum canis) [mg/L] | MIC (Candida albicans) [mg/L] | MIC (Torulopsis glabrata) [mg/L] | MIC (Aspergillus fumig.) [mg/L] | antimycotic action compared with compounds (A), (B), (C) and (D) [1] |
| --- | --- | --- | --- | --- | --- | --- |
| CC(C)(C)C(O)C(=Cn1ccnc1)Oc1ccc(F)cc1 (centres unmarked) [(A), reference compound] | 1 (≈ 3.44 µM) | 64 (≈ 220 µM) | 32 (≈ 110 µM) | 64 (≈ 220 µM) | > 64 | – |
| CC(C)(C)C(O)C(=Cn1ccnc1)Oc1ccc(-c2ccccc2)cc1 (centres unmarked) [(B), reference compound] | < 1 | 32 (≈ 91.8 µM) | 32 (≈ 91.8 µM) | > 64 | > 64 | – |
| CC(C)(C)C(O)C(=Cn1ccnc1)Oc1ccc(Cl)cc1Cl (centres unmarked) [(C), reference compound] | < 1 | 32 (≈ 93.8 µM) | 16 (≈ 46.9 µM) | 16 (≈ 46.9 µM) | > 64 | – |
| CC(C)(C)C(O)C(=Cn1cncn1)Oc1ccc(Cl)cc1Cl (centres unmarked) [(D), reference compound] | < 1 | 64 (≈ 187 µM) | 32 (≈ 93.5 µM) | 32 (≈ 93.5 µM) | 64 (≈ 187 µM) | – |
| CC1(C)CCOC1=C(Oc1ccc(Cl)cc1)n1ccnc1 [Example 1, (4-chlorophenoxy)-(imidazol-1-yl)-3,3-dimethyltetrahydrofuran-2-ylidene-methane] | < 1 | < 1 | 8 (≈ 26.2 µM) | 2 (≈ 6.56 µM) | < 1 | better antimycotic action |
| CC1(C)CCOC1=C(Oc1ccc(F)cc1)n1ccnc1 [Example 2] | < 1 | < 1 | < 1 | 2 (≈ 6.94 µM) | 2 (≈ 6.94 µM) | better antimycotic action |
